Measured values from ChEMBL document CHEMBL1201862, “PubChem BioAssay data set” (2004).
The source made the active and inactive calls.

How the values were obtained:
[1] = molecular target: T1, Histone-lysine N-methyltransferase NSD2 (Homo sapiens, UniProt O96028); type: biochemical
T1 sequence (O96028 whole entry): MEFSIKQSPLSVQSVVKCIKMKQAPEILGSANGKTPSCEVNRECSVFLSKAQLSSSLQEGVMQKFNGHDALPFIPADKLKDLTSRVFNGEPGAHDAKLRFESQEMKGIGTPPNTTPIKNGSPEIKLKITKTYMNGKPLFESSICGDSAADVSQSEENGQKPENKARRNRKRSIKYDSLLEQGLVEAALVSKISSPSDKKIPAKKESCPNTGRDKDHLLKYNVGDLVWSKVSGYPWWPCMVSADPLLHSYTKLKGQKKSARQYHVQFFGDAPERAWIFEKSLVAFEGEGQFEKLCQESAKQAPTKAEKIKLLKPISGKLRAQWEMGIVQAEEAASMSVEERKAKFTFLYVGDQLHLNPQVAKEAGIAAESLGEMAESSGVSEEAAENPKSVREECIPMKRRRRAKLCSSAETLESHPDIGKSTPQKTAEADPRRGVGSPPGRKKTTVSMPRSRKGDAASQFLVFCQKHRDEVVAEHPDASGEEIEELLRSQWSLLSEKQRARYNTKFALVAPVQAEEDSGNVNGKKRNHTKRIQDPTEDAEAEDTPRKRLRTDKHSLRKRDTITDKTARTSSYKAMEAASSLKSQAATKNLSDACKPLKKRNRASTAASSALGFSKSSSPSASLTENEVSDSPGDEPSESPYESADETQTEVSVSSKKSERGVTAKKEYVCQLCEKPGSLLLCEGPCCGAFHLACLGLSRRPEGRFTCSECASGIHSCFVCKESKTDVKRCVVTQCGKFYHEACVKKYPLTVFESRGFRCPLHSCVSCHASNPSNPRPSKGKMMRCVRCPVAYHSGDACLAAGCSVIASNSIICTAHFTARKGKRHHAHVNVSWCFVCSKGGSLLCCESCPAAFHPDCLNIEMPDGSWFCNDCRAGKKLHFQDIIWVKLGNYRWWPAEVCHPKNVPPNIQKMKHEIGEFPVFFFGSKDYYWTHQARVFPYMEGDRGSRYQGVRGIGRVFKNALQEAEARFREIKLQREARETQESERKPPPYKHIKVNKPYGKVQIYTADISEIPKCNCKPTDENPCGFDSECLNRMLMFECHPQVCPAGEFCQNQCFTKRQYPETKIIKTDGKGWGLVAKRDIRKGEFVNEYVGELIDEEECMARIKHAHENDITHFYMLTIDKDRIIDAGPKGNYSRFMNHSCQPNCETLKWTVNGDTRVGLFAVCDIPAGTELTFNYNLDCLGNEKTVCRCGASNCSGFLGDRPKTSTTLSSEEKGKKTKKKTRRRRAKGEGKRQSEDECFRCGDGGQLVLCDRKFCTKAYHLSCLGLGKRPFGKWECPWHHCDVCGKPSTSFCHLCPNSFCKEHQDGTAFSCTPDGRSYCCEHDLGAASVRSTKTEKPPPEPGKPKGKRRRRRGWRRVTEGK

[2] = Luminescence-based cell-based high throughput dose response assay to identify activators of the DAF-12 from the parasite S. stercoralis (ssDAF-12).; type: functional
[3] = molecular target: T2, Oxysterols receptor LXR-beta (Homo sapiens, UniProt P55055); assay: LXR agonists, Gal4 luciferase reporter, dose response, counter-screen for ssDAF-12 agonist project, cell-based, luminescence, HEK293, S. stercoralis campaign (AID 720737); type: functional; details: read-out: IC50 (the source's name)
T2 sequence (P55055 whole entry): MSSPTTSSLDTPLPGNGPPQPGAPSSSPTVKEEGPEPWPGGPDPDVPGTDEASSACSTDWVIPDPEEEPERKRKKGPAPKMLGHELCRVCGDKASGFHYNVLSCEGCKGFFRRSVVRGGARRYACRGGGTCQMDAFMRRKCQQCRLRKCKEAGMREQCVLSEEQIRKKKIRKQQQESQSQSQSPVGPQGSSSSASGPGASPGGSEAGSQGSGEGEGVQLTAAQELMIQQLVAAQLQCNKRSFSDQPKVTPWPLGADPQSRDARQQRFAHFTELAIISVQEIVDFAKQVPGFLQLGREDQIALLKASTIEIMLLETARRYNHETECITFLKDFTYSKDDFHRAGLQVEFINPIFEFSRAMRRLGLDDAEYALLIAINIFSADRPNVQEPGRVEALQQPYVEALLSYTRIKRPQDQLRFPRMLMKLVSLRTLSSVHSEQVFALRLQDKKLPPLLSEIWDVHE

Protein Tat = Protein Tat (Human immunodeficiency virus type 1 group M subtype B (isolate HXB2)(HIV-1), UniProt P04608); type: functional;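 also: tat binding to TAR RNA read out by fluorescence polarization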
[4] = P. falciparum 3D7-ScDHODH growth inhibitors, dose response, SYBR Green, dry powder samples (AID 1159570); type: functional, cell-based;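 also: parasite growth measured after 72 hours of compound exposure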
[5] = HepG2 cell cytotoxicity, dose response, cytotoxicity control, plate reader, dry powder samples (AID 1159569); type: functional, cell-based;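 also: inhibitor potency with signal falling toward the positive control level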
[6] = P. falciparum Dd2 growth inhibitors, dose response, SYBR Green, cherry-picked samples (AID 1159567); type: functional, cell-based
[7] = P. falciparum Dd2 growth inhibitors, dose response, SYBR Green, dry powder samples (AID 1159566); type: functional, cell-based;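 also: potency for growth inhibition with lower SYBR green DNA signal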
[8] = HepG2 cell cytotoxicity, dose response, cytotoxicity control, cherry-picked samples (AID 1159577); type: functional, cell-based
[9] = P. falciparum ATP4 D1247Y mutant growth inhibitors, dose response, NITD609-resistant line, SYBR Green, dry powder (AID 1159571); type: functional, cell-based;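 also: parasites synchronized at ring stage by sorbitol before testing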
[10] = molecular target: T3, E3 ubiquitin-protein ligase XIAP (Homo sapiens, UniProt P98170); assay: Counter Screen using XIAP-Bir3 for Chemical Antagonists of Bir1/2 domains of IAP-family anti-apoptotic proteins. [Related pubchem assays (depositor defined):AID1018, AID1449, AID1514, AID1638, AID1749, AID1750, AID488957, AID488963]
[11] = molecular target: T3, E3 ubiquitin-protein ligase XIAP; assay: XIAP antagonists, biochemical, IAP family, fluorescence polarization (AID 1018); type: functional
[12] = molecular target: Glucose-6-phosphate 1-dehydrogenase (Homo sapiens, UniProt P11413); assay: human G6PD enzyme inhibitors, dose response, selectivity assay for P. falciparum G6PD inhibitor project, biochemical, fluorescence (AID 504792); type: functional
[13] = molecular target: Eukaryotic translation initiation factor 4E (Mus musculus, UniProt P63073); assay: eIF4E–eIF4G protein interaction inhibitors, dose response, biochemical, TR-FRET (AID 855); type: functional;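 also: potency for disrupting eIF4E binding to eIF4GI seen as loss of FRET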
Hexokinase HKDC1 = molecular target: T4, Hexokinase HKDC1 (Homo sapiens, UniProt Q2TB90); assay: HKDC1 hexokinase inhibitors, dose response, biochemical, W721R variant (AID 504729); type: functional
T4 sequence (Q2TB90 whole entry): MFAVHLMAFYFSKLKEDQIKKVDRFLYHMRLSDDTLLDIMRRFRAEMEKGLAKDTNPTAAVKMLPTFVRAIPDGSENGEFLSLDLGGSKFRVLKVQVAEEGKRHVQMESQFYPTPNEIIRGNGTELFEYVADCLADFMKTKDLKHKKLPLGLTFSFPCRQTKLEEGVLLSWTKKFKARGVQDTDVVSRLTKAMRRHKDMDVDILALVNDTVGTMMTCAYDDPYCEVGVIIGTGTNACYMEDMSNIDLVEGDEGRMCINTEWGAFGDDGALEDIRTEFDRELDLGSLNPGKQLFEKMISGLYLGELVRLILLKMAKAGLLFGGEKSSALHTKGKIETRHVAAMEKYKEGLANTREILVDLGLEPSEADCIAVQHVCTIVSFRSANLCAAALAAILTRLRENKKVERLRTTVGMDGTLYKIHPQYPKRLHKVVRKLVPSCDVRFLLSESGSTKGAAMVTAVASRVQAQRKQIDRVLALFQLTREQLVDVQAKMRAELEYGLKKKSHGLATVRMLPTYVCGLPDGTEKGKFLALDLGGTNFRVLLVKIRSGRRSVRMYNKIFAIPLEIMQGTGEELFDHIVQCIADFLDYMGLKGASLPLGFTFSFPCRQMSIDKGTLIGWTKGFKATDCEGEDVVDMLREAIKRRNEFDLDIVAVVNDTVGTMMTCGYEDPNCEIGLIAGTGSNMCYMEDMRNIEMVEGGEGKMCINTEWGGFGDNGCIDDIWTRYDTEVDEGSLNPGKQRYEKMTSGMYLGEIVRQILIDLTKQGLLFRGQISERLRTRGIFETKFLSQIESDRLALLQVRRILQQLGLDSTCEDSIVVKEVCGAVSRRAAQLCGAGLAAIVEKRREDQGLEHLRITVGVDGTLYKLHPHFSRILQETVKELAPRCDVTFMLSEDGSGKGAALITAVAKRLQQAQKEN

[14] = molecular target: T5, Replicative DNA helicase DnaB (Mycobacterium tuberculosis, UniProt P9WMR3); assay: DnaB intein splicing inhibitors, dose response, biochemical, cell-free fluorescence (AID 449749); type: functional
T5 sequence (P9WMR3 whole entry): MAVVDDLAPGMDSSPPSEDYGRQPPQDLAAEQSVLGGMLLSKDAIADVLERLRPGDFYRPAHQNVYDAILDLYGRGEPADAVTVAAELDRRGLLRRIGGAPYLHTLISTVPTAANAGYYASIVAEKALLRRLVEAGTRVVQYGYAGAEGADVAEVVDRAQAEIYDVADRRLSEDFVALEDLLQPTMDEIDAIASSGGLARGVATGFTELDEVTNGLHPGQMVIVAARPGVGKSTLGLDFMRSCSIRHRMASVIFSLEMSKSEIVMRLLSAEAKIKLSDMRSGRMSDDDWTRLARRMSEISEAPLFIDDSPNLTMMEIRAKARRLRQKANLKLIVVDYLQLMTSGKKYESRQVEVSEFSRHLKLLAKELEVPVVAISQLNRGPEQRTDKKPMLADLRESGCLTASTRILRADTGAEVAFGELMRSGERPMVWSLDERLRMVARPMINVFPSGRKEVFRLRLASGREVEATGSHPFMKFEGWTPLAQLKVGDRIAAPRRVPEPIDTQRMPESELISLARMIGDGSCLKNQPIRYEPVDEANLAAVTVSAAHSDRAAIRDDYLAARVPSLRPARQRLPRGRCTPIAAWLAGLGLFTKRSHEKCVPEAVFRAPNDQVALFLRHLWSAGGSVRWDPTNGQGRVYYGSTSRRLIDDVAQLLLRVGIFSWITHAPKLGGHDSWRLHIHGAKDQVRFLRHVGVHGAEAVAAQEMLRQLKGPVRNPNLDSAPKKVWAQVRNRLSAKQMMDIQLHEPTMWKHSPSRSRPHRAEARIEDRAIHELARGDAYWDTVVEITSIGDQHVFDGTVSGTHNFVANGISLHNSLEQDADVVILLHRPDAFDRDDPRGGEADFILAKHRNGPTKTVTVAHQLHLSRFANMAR

Protein RecA = molecular target: T6, Protein RecA (Mycobacterium tuberculosis, UniProt P9WHJ3); assay: Fluorescence Cell-Free Homogeneous Dose Retest to Identify Inhibitors of RecA-Intein Splicing Activity. [Related pubchem assays (depositor defined):AID2097, AID2223, AID489010, AID492950]; type: functional
T6 sequence (P9WHJ3 whole entry): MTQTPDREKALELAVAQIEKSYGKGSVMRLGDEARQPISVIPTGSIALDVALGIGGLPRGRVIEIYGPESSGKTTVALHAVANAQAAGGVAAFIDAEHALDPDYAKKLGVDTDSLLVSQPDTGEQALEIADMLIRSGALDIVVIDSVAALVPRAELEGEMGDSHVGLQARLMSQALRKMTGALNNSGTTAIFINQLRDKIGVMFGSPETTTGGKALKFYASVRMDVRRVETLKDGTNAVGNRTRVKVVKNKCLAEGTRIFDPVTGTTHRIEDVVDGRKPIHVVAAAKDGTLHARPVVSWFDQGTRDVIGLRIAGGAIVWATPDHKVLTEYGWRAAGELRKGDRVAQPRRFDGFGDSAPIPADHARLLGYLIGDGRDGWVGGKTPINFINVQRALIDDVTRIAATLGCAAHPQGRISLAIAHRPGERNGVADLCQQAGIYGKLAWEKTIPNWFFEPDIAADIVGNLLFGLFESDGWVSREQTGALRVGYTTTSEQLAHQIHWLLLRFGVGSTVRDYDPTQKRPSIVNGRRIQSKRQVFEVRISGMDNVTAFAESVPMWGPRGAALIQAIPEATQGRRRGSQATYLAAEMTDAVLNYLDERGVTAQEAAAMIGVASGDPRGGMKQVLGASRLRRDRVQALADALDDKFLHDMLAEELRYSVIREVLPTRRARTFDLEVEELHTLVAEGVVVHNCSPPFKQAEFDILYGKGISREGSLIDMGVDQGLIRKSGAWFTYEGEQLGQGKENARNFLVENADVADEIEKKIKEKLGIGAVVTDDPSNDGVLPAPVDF

Genome polyprotein = Genome polyprotein (dengue virus type 2, UniProt P29990); assay: Dengue-2 NS5 methyltransferase inhibitors, primary screen, biochemical, confirmation dose response (AID 588689); type: functional
[15] = molecular target: Luciferin 4-monooxygenase (Photinus pyralis, UniProt P08659); assay: Counter Screen for Luciferase-based Assay Positives. [Related pubchem assays: 620, 618, 411 ]
HT-1080 = assay: cytotoxicity in HT1080 fibrosarcoma cells, cell-based, fluorescence readout (AID 620); type: functional; details: Homo sapiens
[16] = molecular target: T2, Oxysterols receptor LXR-beta; type: functional, cell-based

T3 sequence (P98170 whole entry): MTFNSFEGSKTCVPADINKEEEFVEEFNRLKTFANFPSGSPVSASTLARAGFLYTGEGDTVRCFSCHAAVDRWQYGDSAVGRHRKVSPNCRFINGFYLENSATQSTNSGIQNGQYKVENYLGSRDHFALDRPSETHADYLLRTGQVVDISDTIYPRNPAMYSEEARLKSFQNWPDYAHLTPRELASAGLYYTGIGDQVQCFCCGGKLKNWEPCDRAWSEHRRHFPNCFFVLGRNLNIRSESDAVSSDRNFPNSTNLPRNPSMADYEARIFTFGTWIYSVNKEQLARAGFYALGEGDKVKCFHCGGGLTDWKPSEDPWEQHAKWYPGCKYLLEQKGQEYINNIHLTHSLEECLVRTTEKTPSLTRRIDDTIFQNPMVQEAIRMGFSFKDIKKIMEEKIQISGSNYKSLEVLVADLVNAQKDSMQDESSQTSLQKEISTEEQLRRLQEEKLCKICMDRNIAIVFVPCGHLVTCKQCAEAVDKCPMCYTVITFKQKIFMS
Sequence of Protein Tat (P04608 whole entry): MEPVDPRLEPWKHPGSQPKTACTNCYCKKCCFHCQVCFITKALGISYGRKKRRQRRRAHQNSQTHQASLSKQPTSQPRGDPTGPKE
Sequence of Eukaryotic translation initiation factor 4E (P63073 whole entry): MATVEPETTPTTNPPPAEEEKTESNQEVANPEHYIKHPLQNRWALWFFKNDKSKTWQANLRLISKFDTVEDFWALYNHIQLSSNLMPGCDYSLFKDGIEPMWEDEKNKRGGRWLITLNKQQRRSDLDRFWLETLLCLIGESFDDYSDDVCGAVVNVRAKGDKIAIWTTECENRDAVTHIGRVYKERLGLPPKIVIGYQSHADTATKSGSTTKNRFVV
Sequence of Genome polyprotein (P29990 2492-3391 limits assumed): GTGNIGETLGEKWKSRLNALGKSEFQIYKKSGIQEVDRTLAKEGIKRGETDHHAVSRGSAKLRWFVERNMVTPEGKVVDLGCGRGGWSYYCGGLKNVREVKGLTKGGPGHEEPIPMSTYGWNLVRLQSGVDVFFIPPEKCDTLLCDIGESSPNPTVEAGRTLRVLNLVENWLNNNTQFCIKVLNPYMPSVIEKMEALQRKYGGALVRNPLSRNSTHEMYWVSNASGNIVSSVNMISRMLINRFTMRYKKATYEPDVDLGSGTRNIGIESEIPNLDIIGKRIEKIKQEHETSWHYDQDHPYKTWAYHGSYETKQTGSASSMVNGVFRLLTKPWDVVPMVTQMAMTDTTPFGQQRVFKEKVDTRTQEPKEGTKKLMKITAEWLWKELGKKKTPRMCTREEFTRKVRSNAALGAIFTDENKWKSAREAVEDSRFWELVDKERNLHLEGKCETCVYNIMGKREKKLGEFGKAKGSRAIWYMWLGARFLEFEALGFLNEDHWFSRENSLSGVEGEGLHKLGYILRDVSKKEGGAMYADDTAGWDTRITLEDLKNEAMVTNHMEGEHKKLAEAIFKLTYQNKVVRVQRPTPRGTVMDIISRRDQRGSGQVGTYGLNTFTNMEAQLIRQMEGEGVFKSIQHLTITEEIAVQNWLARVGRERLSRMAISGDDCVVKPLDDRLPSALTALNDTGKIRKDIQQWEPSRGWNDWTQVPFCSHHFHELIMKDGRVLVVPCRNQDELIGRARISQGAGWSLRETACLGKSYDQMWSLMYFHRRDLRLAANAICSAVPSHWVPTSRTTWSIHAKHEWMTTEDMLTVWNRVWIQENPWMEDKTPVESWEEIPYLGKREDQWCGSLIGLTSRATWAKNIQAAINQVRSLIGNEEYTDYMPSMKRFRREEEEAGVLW
Sequence of Glucose-6-phosphate 1-dehydrogenase (P11413 whole entry): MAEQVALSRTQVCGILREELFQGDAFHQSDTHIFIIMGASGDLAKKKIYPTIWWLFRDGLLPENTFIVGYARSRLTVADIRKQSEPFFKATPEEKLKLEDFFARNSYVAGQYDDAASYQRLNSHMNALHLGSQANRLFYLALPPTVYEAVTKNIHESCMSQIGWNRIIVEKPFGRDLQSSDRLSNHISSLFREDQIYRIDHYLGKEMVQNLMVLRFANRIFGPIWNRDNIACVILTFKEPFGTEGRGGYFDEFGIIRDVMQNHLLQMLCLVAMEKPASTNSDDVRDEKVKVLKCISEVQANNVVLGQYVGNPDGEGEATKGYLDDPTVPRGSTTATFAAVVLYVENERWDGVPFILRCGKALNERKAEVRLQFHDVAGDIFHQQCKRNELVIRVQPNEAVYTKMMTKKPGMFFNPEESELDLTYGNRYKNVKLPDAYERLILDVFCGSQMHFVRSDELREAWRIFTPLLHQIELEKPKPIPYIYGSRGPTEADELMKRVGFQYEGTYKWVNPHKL
Sequence of Luciferin 4-monooxygenase (P08659 whole entry): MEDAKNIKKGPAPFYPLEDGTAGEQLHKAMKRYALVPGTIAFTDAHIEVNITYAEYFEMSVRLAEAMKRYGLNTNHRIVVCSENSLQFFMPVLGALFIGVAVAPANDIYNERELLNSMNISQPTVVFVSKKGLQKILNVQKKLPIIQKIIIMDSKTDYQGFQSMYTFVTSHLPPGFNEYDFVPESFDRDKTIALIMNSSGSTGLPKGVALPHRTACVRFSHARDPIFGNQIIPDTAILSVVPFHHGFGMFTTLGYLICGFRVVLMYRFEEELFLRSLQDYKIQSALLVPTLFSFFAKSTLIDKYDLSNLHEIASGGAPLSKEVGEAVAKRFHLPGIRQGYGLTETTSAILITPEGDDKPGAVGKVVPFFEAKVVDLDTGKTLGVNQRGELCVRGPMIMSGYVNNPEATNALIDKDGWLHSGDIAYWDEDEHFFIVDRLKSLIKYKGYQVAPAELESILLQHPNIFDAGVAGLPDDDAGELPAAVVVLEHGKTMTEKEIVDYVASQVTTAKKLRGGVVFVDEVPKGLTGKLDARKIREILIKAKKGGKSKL

## Cc1ccc(C(=O)NC(=S)c2c(C)cc3ccccn23)cc1
[1]
  AC50: 11 µM (active)
[2]
  IC50: > 67.5 µM (inactive)
[3]
  EC50: > 67.5 µM (inactive)

## CCCOC(=O)Nc1sc2c(c1C(=O)OCC)CCC2
Protein Tat
  IC50: > 100 µM (active)

## COc1ccccc1C#Cc1ccc([C@@H]2[C@@H](C#N)N(C(=O)C3CCCC3)[C@H]2CO)cc1
[4]
  AC50: 1.92 µM (active)
[5]
  AC50: 25.2 µM (active)
[6]
  AC50: 2.9 µM (active)
[7]
  AC50: 1.22 µM (active)
[8]
  AC50: > 39 µM (inactive)
[9]
  AC50: 1.39 µM (active)

## Oc1nc2ccccc2n2c(-c3ccccc3)nnc12
[10]
  IC50: > 100 µM (inactive)
[11]
  IC50: > 100 µM (not active)
[12]
  IC50: 41.6 µM (inactive)
[13]
  IC50: 34.4 µM (inactive)
Hexokinase HKDC1
  IC50: 7.52 µM (active)
[14]
  AC50: > 380 µM (inactive)
Protein RecA
  EC50: 12.8 µM (active)
Genome polyprotein
  IC50: 8.26 µM (active)
Protein Tat
  IC50: > 100 µM (active)

## CCc1ccc2oc(-c3cccc(N)c3)nc2c1
[15]
  EC50: 0.37 µM (active)
HT-1080
  EC50: > 50 µM (not active)
[2]
  IC50: > 67.5 µM (inactive)
[3]
  EC50: > 67.5 µM (inactive)
[16]
  EC50: > 67.6 µM (inactive)
